Results as given in US9539315B2, “Methods, agents and peptides for inhibiting matrix metalloproteinase-2 signaling” (New York University, priority 2011, dated 2017).

What was measured:
[1] = tested on: MMP-2-specific CD4^+ T cells; assay: Screen of overlapping MMP-2 peptides for recognition by CD4+ T cell clones; format: cell-based, human; conditions: 20-mer peptides of MMP-2
Source text: By way of background, the present inventors used a pool of sixty-six 20-amino acid long, partially overlapping peptides spanning the entire sequence of MMP-2 (SEQ ID NO: 1) to screen for the presence of MMP-2-specific CD4^+ T cells and identify the specific MMP-2 epitopes for which these clones were specific. See, for example, FIG. 6. Using this method, CD4^+ T cell clones specific for eleven distinct and novel MMP-2-derived peptides/epitopes were generated. An empirical approach to determining which, if any, of the potential MMP-2 peptides could induce MMP-2-specific CD4^+ T cells was necessitated because of the nature and complexity of antigen processing and presentation by antigen presenting cells [APCs; e.g., monocyte-derived dendritic cells (DCs)] and the additional complexities involved in T cell recognition of presented antigen, which are influenced by, for example, the presence and/or concentration of particular cytokines that are instructive for divergent T cell differentiation pathways.
Peripheral blood mononuclear cells (PBMCs) can be purified from healthy donor- (HD) or cord blood donor- (CB) derived buffy coats (New York Blood Center) by Ficoll-Paque Plus (GE Healthcare) centrifugation. CD4^+/CD25^− cells were enriched (>90%) by magnetic cell sorting (Miltenyi Biotec) and primed/stimulated for 12-15 days either with irradiated (35Gy) autologous CD4^− cells or with autologous mature DCs in IMDM (GIBCO) supplemented with 1 mM HEPES (Life Technologies), 2 mM L-glutamine (Sigma), […] (Sigma) and 5% heat inactivated pooled human serum (PHS; Valley Biomedical) in the presence of rhIL-2 (10 UI/mL) and IL7 (5 ng/mL) (R&D Systems). Antigen presenting cells (CD4^− cells or DCs) were loaded either with peptides […] or with the MMP-2 protein (10 μg/mL) for 2 and 5 h, respectively. To generate T cell clones, we originally relied on our published methodology (Godefroy et al., 2006; Godefroy et al., 2007; the entire content of each of which is incorporated herein by reference), involving enrichment of IFNγ-secreting cells upon short-term culture and peptide stimulation to generate MMP-2 responsive clones. Briefly, CD4^+ T cells were stimulated by CD4^− cells irradiated and pulsed with peptides for 12 days in the presence of rhIL-2 and rhIL-7. CD4^+ T cells were then restimulated with peptides for 3 hours before capturing IFNγ-secreting specific cells using a bispecific antibody coating T cells and capturing produced IFNγ. Positive cells were purified magnetically before being cloned. Although MMP-2-specific cells could be isolated, it was realized that IFNγ secretion was marginal compared to their secretion of IL-4 and TNFα. IFNγ-secreting cells in response to MMP-2 peptide pool were enriched by cytokine-guided magnetic cell sorting (Miltenyi Biotec) as described above and cloned the following day by limiting dilution in the presence of irradiated allogeneic PBMCs, 1 μg/mL phytohemagglutinin-L (Sigma) and 150 UI/mL rhIL-2. Tumor infiltrating lymphocytes (TILs) were provided by Pr. F. Jotereau and B. Dréno. They were obtained from tumor-invaded lymph nodes of melanoma patients (stage IIIb) and expanded ex vivo. These patients received autologous TILs and IL-2 infusions in a clinical trial (Labarriere et al., 2002). This protocol was approved by the Institutional Ethics Committee and registered with regulatory state authority in France (Nantes).
T-bet and GATA-3 expression was measured on resting T cells. Cells were fixed (4% paraformaldehyde for 10 min at RT), permeabilized with 0.1% saponin, and stained for intracellular transcription factors. Cytokine production by T cells was also assessed by intracellular staining. T cells were stimulated with 2 μM overlapping peptides. After 1 h, 10 μg/mL brefeldin A was added to the cells. […]

OX40L = OX40L expression on DCs (staining); format: cell-based, human; conditions: for OX40L expression on DCs: DCs exposed for 2 days, stained for OX40L
Method: (§1) A) DCs were exposed to MMP-2 […] or zymosan […], a known activator of NF-κB that acts via TLR2, for the indicated time. Cytosolic and nuclear fractions were isolated and p50 contents were measured by ELISA. […] C) OX40L over-expression on DCs induced by MMP-2 is inhibited by an inhibitor of NEMO, the NEMO binding domain (NBD) peptide, but not by the corresponding negative control, a NBD mutant.
A) DCs were exposed to various TLR agonists for 2 days before cells were stained for OX40L. […] B) TLR2-transfected and engineered HEK cells were incubated with MMP-2 (5 mg/ml) or various controls. All conditions were also tested in the presence of a blocking antibody for TLR2. TNFα was used to activate NF-κB in a TLR-independent manner. Twenty hours later, NF-κB activation was measured.
Antibody to OX40L (11C3.1) was from Biolegend. Blocking antibodies to TLR-2 and TLR-6 were from Invivogen. Antibodies to GATA-3, IL-4 (8D4-8), IL-5 (JES1-39D10), IL-13 (JES10-5A2), TNFα (MAb11), IFNγ (25723.11), perforin (δG9), GranzymeB (GB11), CD40 (5C3), CD80 (L307.4), CD83 (HB15e), CD86 (IT2.2), HLA-DR (TU36), fluorescein isothiocyanate-conjugated antibodies to CD45RA (HI100) and CD45RO (UCHL1), and antibody to CD4 (RPA-T4) were purchased from BD Biosciences Pharmingen. Alexa fluor 488-conjugated antibody to IL-17 (eBio64DEC17), phycoerythrine-conjugated antibody to T-bet (4B10).
(§2) PBMCs were purified from healthy-(HD) or cord blood- (CB) donors and plated at 40×10^6 cells/10 mL/dish in complete IMDM with 5% PHS. Cells were allowed to adhere for 2 h at 37° C. Non-adherent cells were removed. The monocyte-enriched fraction was supplemented with 100 UI/mL rhGMCSF and 300 UI/mL rhIL-4 (R&D Systems) on days 0, 2 and 4. Immature DCs were harvested on day 5 and matured using poly(I:C) at 5 μg/mL/10^6 DCs (Amersham). Secretion of IL-12p70, TNFα, IL-1β, IL-6, IL-8 and IL-10 was assessed on both immature and mature DCs using the Human Inflammatory Cytokine Cytometric Bead Array (BD Pharmingen).

bone-marrow-derived DCs = assay: Activation of bone-marrow-derived DCs from wild-type and TLR-deficient mice; format: cell-based, C57/BL6 mice
Method: Bone-marrow-derived DCs from wild-type, TLR2^−/−, TLR6^−/− or MyD88^−/− C57/BL6 mice (3 mice pooled/condition) were incubated overnight with 5 μg/ml mMMP-2 or mMMP-9 as well as TLR agonists for controls. TNFα (A) and IL-6 (B) were measured by cytometric bead array analysis. Results are represented as a mean of triplicates±s.d. Two-tailed Student's t-tests were used for specific pairwise comparisons between conditions. p values≦0.05 (*) were considered statistically significant. C) Murine OX40L expression was assessed 2 days later by immunostaining.
Bone-marrow-derived DCs (BM-DCs) were generated and cultured with murine MMP-2 or various controls. […] On the other hand, TLR2^−/− and MyD88^−/− BM-DCs were not activated by MMP-2 (n=3; p<0.02 compared to wild-type mice) (FIG. 9A-C). […] Therefore, MMP-2 induces DCs to produce inflammatory cytokines and to up-regulate OX40L in a TLR2/MyD88-dependent manner.

NF-κB pathway = assay: p50 nuclear translocation / NF-κB activation in DCs (ELISA of cytosolic and nuclear fractions); format: cell-based, human
Method: as §1, §2
Activation of T cell clones (10,000 cells/100 μL/well), polyclonal T cell populations (100,000 cells/100 μL/well), and DCs (50,000 cells/100 μL/well) can be determined by ELISA. IFNγ (BioSource), TNFα (BioSource), IL-4 (BioSource), IFNβ (VeriKine; PBL interferon source) and MCP-3 (DuoSet; R&D Systems) contents in supernatants were measured according to the manufacturer's instructions. p50 was measured in cytosolic and nuclear fractions (fractions separated using the nuclear separation kit from Active motif) by ELISA (Active motif).

“ESCTSAGRSDGKMWCATTAN (listed as Homo sapiens) [P361-380]” was tested, and the “recognition as epitope by CD4+ T cell clones” value (“recognition as epitope” for short) [1] was “recognized by CD4^+ T cell clones”.

In the case of “GCLLSHAAAAPSPIIKFPGD (listed as Homo sapiens) [P21-40]”, the “recognition as epitope” value [1] is reported as “recognized by CD4^+ T cell clones”.

“GFPKLIADAWNAIPDNLDAV (listed as Homo sapiens) [P601-620]” was tested, and the “recognition as epitope” value [1] was “recognized by CD4^+ T cell clones”.

For Pam3CSK4, the “OX40L over-expression on TLR-2-transfected HEK cells or DCs” value (OX40L; TLR-2/TLR-1 agonist) was “did not induce OX40L over-expression”.

In the case of MALP-2, the “OX40L expression on DCs” value (OX40L) is reported as “induce OX40L on DCs”.

“VDLQGGGHSYFFKGAYYLKL (listed as Homo sapiens) [P621-640]” was tested, and the “recognition as epitope” value [1] was “recognized by CD4^+ T cell clones”.

In the case of “FFKGAYYLKLENQSLKSVKF (listed as Homo sapiens) [P631-650]”, the “recognition as epitope” value [1] is reported as “recognized by CD4^+ T cell clones”.

With “TGPLRALCLLGCLLSHAAAA (listed as Homo sapiens) [P11-30]” the “recognition as epitope” value [1] was “recognized by CD4^+ T cell clones”.

With “GYPKPLTSLGLPPDVQRVDA (listed as Homo sapiens) [P551-570]” the “recognition as epitope” value [1] was “recognized by CD4^+ T cell clones”.

In the case of “MEALMARGALTGPLRALCLL (listed as Homo sapiens) [P1-20]”, the “recognition as epitope” value [1] is reported as “recognized by CD4^+ T cell clones”.

With “AFNWSKNKKTYIFAGDKFWR (listed as Homo sapiens) [P571-590]” the “recognition as epitope” value [1] was “recognized by CD4^+ T cell clones”.

For “VAPKTDKELAVQYLNTFYGC (listed as Homo sapiens) [P41-60]”, the “recognition as epitope” value [1] was “recognized by CD4^+ T cell clones”.

With “murine MMP-2: murine MMP-2 protein, active or inactive” the “activation of bone-marrow-derived DCs” value (bone-marrow-derived DCs; FIG. 9 summary) was “activates bone-marrow-derived DCs in a TLR2- and MyD88-dependent manner”, the “activation of TLR2−/− and MyD88−/− BM-DCs” value (bone-marrow-derived DCs; TLR2−/− and MyD88−/− BM-DCs, n=3) was “not activated” and the “inflammatory cytokine secretion (TNFα, IL-6) by BM-DCs” value (bone-marrow-derived DCs; wild-type and TLR6−/− BM-DCs, 5 μg/ml overnight, active or inactive) was “secreted inflammatory cytokines”. For the same molecule, the “OX40L up-regulation on BM-DCs” value (bone-marrow-derived DCs; wild-type and TLR6−/− BM-DCs, 2 days) was “up-regulated OX40L”.

For “RIHDGEADIMINFGRWEHGD (listed as Homo sapiens) [P161-180]”, the “recognition as epitope” value [1] was “recognized by CD4^+ T cell clones”.

In the case of NEMO binding domain (NBD) peptide, the “inhibition of OX40L over-expression on DCs induced by MMP-2” value (OX40L; DCs, MMP-2-induced) is reported as “inhibited”.

B1: heat-inactivated (HI) MMP-2: MMP-2 enzyme inactivated by heating to 56° C. for 45 min (protein)
chain: YNFFPRKPKWDKNQITYRIIGYTPDLDPETVDDAFARAFQVWSDVTPLRFSRIHDGEADIMINFGRWEHGDGYPFDGKDGLLAHAFAPGTGVGGDSHFDDDELWTLGEGQVVRVKYGNADGEYCKFPFLFNGKEYNSCTDTGRSDGFLWCSTTYNFEKDGKYGFCPHEALFTMGGNAEGQPCKFPFRFQGTSYDSCTTEGRTDGYRWCGTTEDYDRDKKYGFCPETAMSTVGGNSEGAPCVFPFTFLGNKYESCTSAGRSDGKMWCATTANYDDDRKWGFCPDQGYSLFLVAAHEFGHAMGLEHSQDPGALMAPIYTYTKNFRLSQDDIKGIQELYGASPDIDLGTGPTPTLGPVTPEICKQDIVFDGIAQIRGEIFFFKDRFIWRTVTPRDKPMGPLLVATFWPELPEKIDAVYEAPQEEKAVFFAGNEYWIYSASTLERGYPKPLTSLGLPPDVQRVDAAFNWSKNKKTYIFAGDKFWRYNEVKKKMDPGFPKLIADAWNAIPDNLDAVVDLQGGGHSYFFKGAYYLKLENQSLKSVKFGSIKSDWLGC
B1 was tested, and the “p50 translocation in the nucleus” value (NF-κB pathway; DCs exposed to MMP-2 (5 μm/ml) or zymosan (10 μm/ml), p50 by ELISA) was “trigger p50 translocation in the nucleus”, the “NF-κB activation in DCs” value (NF-κB pathway; active vs heat-inactivated MMP-2) was “NF-κB activation (FIGS. 2A, 2B and 3) at similar levels” and the “OX40L expression on DCs” value (OX40L) was “induce OX40L expression”.
